Results: US20240391800A1, “HYPERSALINE DESALINATION USING IONIC LIQUIDS AND LOW-TEMPERATURE HEAT” (UNIVERSITY OF NOTRE DAME DU LAC, priority 2021, published 2024)
Values joined by “and” are separate entries in the source; they are usually repeats but may differ in a detail not shown here. Equal entries are not always repeated.

How the values were obtained:
[1] = Viscosity (rheometer); type: physicochemical; conditions: for Viscosity in Pa · s: 293 K; for Viscosity: TA Instrument Discovery HR-2, temperature not stated
Description: Table 3. The viscosity was measured with Discovery Hybrid Rheometer 2.

[2] = Directional solvent extraction (DSE) desalination cycle, moderate / seawater-salinity NaCl feed; conditions: seawater salinity feedwater (3.5 wt %, 14,000 ppm Na+)
[3] = Ionic liquid concentration / solubility in NaCl solution or brine; type: physicochemical
Description: Additional experiments were performed to measure IL concentration in the brine with different salinities. In these experiments, the brine (MX, FIG. 1) salinity is 4% or higher depending on the initial mixing ratio of the saline water and IL.

[4] = Solubility of ionic liquid in water (LC-MS of [Tf2N]-); conditions: for Solubility in H2O: Table 7 / Example 2; for Solubility in H2O (ppm): IL in water / residual in recovered water
[5] = DSE desalination cycle, high-salinity / saturated / hypersaline NaCl feed

CC(C)C[C@H](NS(=O)(=O)C(F)(F)F)C(=O)O.CCCCCCCC[P+](CCCC)(CCCC)CCCC [[P4448] I-Leu, Tributyloctylphosphonium trifluoromethanesulfonylleucine]
Viscosity in Pa · s [1]: 1.017 ± 0.078 Pa · s

COC[n+]1ccn(C)c1 [[mommim][Tf2N], 1-(methoxymethyl)-3-methyl-1H-imidazol-3-ium bis(trifluoromethylsulfonyl)imide]
Ion rejection, seawater concentration [2]: 95.2%
solubility in 4% NaCl solution [3]: about 26 ppm
Solubility in H2O [4]: ~270 ppm
Viscosity [1]: 0.056 Pa · s
highest salt rejection rate obtained ([5]; NaCl 19.6 wt % hypersaline feed): 95.8%
Ion rejection, hypersaline ([5]; NaCl 19.6 wt %, Na+ 77,300 ppm feed, average of samples): 89.5%

CC[n+]1ccn(C)n1 [[1,2,3-emtriz][Tf2N], 1-ethyl-3-methyl-1,2,3-triazolium bistriflimide]
Ion rejection, seawater concentration [2]: 92.5%
solubility in 4% NaCl solution [3]: about 41 ppm
Solubility in H2O [4]: ~390 ppm
Viscosity [1]: 0.035 Pa · s

CCCCCCCC[P+](CCCC)(CCCC)CCCC [[P4448][Tf2N]] [Tributyloctylphosphonium bis(trifluoromethanesulfonyl)imide]
Viscosity in Pa · s [1]: 0.433 Pa · s and 0.433 ± 0.099 Pa · s

CCCCn1cc[n+](C)c1 [[bmim][Tf2N], 1-Butyl-3-methylimidazolium bis(trifluoromethylsulfonyl)imide]
Solubility in H2O (ppm) [4]: <90 ppm
Viscosity in Pa · s [1]: 0.056 ± 0.010 Pa · s

CCCCCCCCCCCCCC[P+](CCCCCC)(CCCCCC)CCCCCC [[P66614][Tf2N], Trihexyltetradecylphosphonium bis(trifluoromethanesulfonyl)imide]
Viscosity in Pa · s [1]: 0.081 ± 0.059 Pa · s

CCn1cc[n+](C)c1 [[emim][Tf2N], 1-Ethyl-3-methylimidazolium bis(trifluoromethylsulfonyl)imide]
IL concentration in the brine (MX) ([3]; brine with 4% salinity): 4 ppm
IL solubility in saturated NaCl solution ([3]; saturated NaCl solution): lower than 4 ppm
Solubility in H2O (ppm) [4]: 130-150 ppm
Viscosity in Pa · s [1]: 0.033 ± 0.014 Pa · s

CCCCCCCC[P+](CCCC)(CCCC)CCCC [[P4448][Bzlm]] [Tributyloctylphosphonium benzo[d]imidazol-1-ide]
Viscosity in Pa · s [1]: 0.185 ± 0.092 Pa · s
